# Experimental data reported in patent publication US7932283B2, “Fungicide N-cyclopropyl-sulfonylamide derivatives” (Bayer Cropscience AG, priority 2006, dated 2011).
# Test: logP by HPLC on reversed-phase column (C 18), EEC Directive 79/B31 Annex V.A8, methods A and B
# Type: physicochemical
# Details: reversed-phase HPLC column (C 18), HPLC reversed-phase C 18, method A: 43° C., 0.1% aqueous phosphoric acid, acetonitrile, linear gradient 10% to 90% acetonitrile
# Description: Calibration was carried out using unbranched alkan-2-ones (having 3 to 16 carbon atoms) with known logP values (determination of the logP values by the retention times using linear interpolation between two successive alkanones).
row,Structure (SMILES),chromatographic logP
1,O=C(c1cc(Br)c(Br)o1)N(C1CC1)S(=O)(=O)c1ccccc1O [Compound 1],3.58
2,Cc1occc1C(=O)N(C1CC1)S(=O)(=O)c1cccc(O)c1 [Compound 3],3.27
3,Cc1occc1C(=O)N(C1CC1)S(=O)(=O)c1ccccc1O [Compound 4],2.77
4,Cc1ccsc1C(=O)N(C1CC1)S(=O)(=O)c1cccc(O)c1 [Compound 13],3.64
5,Cc1ccsc1C(=O)N(C1CC1)S(=O)(=O)c1ccccc1O [Compound 14],3.12
6,O=C(c1cc(Br)c(Br)s1)N(C1CC1)S(=O)(=O)c1ccccc1O [Compound 15],4.07
7,CCOC(=O)c1[nH]c(C)c(C(=O)N(C2CC2)S(=O)(=O)c2cccc(O)c2)c1C [Compound 29],3.46
8,CCOC(=O)c1[nH]c(C)c(C(=O)N(C2CC2)S(=O)(=O)c2ccc(C(F)(F)F)cc2)c1C [Compound 30],3.72
9,CCOC(=O)c1[nH]c(C)c(C(=O)N(C2CC2)S(=O)(=O)c2ccc(O)c(C(F)(F)F)c2)c1C [Compound 31],4.08
10,CCOC(=O)c1[nH]c(C)c(C(=O)N(C2CC2)S(=O)(=O)c2ccc(O)cc2O)c1C [Compound 32],3.63
11,CCOC(=O)c1[nH]c(C)c(C(=O)N(C2CC2)S(=O)(=O)c2ccc(C(C)(C)C)cc2)c1C [Compound 33],4.13
12,Cc1nc(C(F)(F)F)c(C(=O)N(C2CC2)S(=O)(=O)c2ccccc2O)s1 [Compound 59],3.2
13,Cc1ncc(C(=O)N(C2CC2)S(=O)(=O)c2cccc(O)c2)s1 [Compound 60],2.8
14,Cc1ncc(C(=O)N(C2CC2)S(=O)(=O)c2ccc(C(F)(F)F)cc2)s1 [Compound 61],3.1
15,Cc1ncc(C(=O)N(C2CC2)S(=O)(=O)c2ccc(O)c(C(F)(F)F)c2)s1 [Compound 62],3.46
16,Cc1ncc(C(=O)N(C2CC2)S(=O)(=O)c2ccc(O)c(O)c2)s1 [Compound 63],3.33
17,Cc1ncc(C(=O)N(C2CC2)S(=O)(=O)c2ccc(O)cc2O)s1 [Compound 64],2.91
18,Cc1nc(C(=O)N(C2CC2)S(=O)(=O)c2ccc(C(F)(F)F)cc2)cs1 [Compound 68],3.18
19,Cc1nc(C(=O)N(C2CC2)S(=O)(=O)c2ccc(O)c(C(F)(F)F)c2)cs1 [Compound 69],3.63
20,Cc1nc(C(=O)N(C2CC2)S(=O)(=O)c2ccc(O)c(O)c2)cs1 [Compound 70],3.46

row,Structure (SMILES),chromatographic logP
1,Cc1nc(C(=O)N(C2CC2)S(=O)(=O)c2ccc(O)cc2O)cs1 [Compound 71],3.03
2,Cc1nc(C(=O)N(C2CC2)S(=O)(=O)c2ccc(C(C)(C)C)cc2)cs1 [Compound 72],3.59
3,Cc1nn(C)c(F)c1C(=O)N(C1CC1)S(=O)(=O)c1ccccc1 [Compound 181],2.28
4,COc1ccccc1S(=O)(=O)N(C(=O)c1c(C)nn(C)c1F)C1CC1 [Compound 182],2.06
5,Cc1ccc(S(=O)(=O)N(C(=O)c2c(C)nn(C)c2F)C2CC2)cc1 [Compound 183],2.59
6,COc1ccc(S(=O)(=O)N(C(=O)c2c(C)nn(C)c2F)C2CC2)cc1 [Compound 184],2.35
7,Cc1nn(C)c(F)c1C(=O)N(C1CC1)S(=O)(=O)c1ccc([N+](=O)[O-])cc1 [Compound 185],2.54
8,Cc1nn(C)c(F)c1C(=O)N(C1CC1)S(=O)(=O)c1ccc(O)cc1 [Compound 190],2.83
9,Cc1nn(C)c(F)c1C(=O)N(C1CC1)S(=O)(=O)c1cc(O)ccc1O [Compound 191],2.91
10,Cc1nn(C)c(F)c1C(=O)N(C1CC1)S(=O)(=O)c1cc(O)cc(O)c1 [Compound 193],3.48
11,Cc1nn(C)c(F)c1C(=O)N(C1CC1)S(=O)(=O)c1cccc([N+](=O)[O-])c1 [Compound 195],2.48
12,Cc1nn(C)cc1C(=O)N(C1CC1)S(=O)(=O)c1ccccc1O [Compound 197],1.95
13,Cc1nn(C)c(O)c1C(=O)N(C1CC1)S(=O)(=O)c1ccccc1O [Compound 199],2.58
14,Cn1cc(C(=O)N(C2CC2)S(=O)(=O)c2ccccc2O)c(C(F)(F)F)n1 [Compound 200],2.71
15,Cc1c(C(=O)N(C2CC2)S(=O)(=O)c2ccccc2O)cnn1-c1ccccc1 [Compound 201],2.97
16,Cc1nn(C)c(F)c1C(=O)N(C1CC1)S(=O)(=O)c1ccccc1[N+](=O)[O-] [Compound 202],2.25
17,Cc1nn(C)c(F)c1C(=O)N(C1CC1)S(=O)(=O)c1ccccc1-c1ccccc1 [Compound 206],2.96
18,Cn1nc(C(F)(F)F)c(C(=O)N(C2CC2)S(=O)(=O)c2ccccc2O)c1O [Compound 208],3.27
19,Cc1nn(C)c(F)c1C(=O)N(C1CC1)S(=O)(=O)c1ccccc1C#N [Compound 216],2.07
20,Cc1nn(C)c(F)c1C(=O)N(C1CC1)S(=O)(=O)c1c(F)cccc1F [Compound 217],2.25

# Same assay, conditions: reversed-phase HPLC column (C 18), HPLC reversed-phase C 18, method B: 40° C., 0.1% aqueous formic acid and acetonitrile, linear gradient 10% to 90% acetonitrile
row,Structure (SMILES),chromatographic logP
1,Cc1cc(C(=O)N(C2CC2)S(=O)(=O)c2cccc(O)c2O)c(C)o1 [Compound 5],3.8
2,Cc1cc(C(=O)N(C2CC2)S(=O)(=O)c2ccc(O)c(O)c2O)c(C)o1 [Compound 6],4.4
3,Cc1cc(C(=O)N(C2CC2)S(=O)(=O)c2ccc(Oc3ccc(Br)cc3)cc2)c(C)o1 [Compound 7],4.9
4,O=C(c1ccsc1I)N(C1CC1)S(=O)(=O)c1cccc(O)c1O [Compound 19],3.8
5,O=C(c1ccsc1I)N(C1CC1)S(=O)(=O)c1ccc(Oc2ccccc2)cc1 [Compound 21],4.3
6,O=C(c1ccsc1I)N(C1CC1)S(=O)(=O)c1ccc(Oc2ccc(Br)cc2)cc1 [Compound 22],4.9
7,COc1cscc1C(=O)N(C1CC1)S(=O)(=O)c1cccc(O)c1O [Compound 25],3.3
8,COc1cscc1C(=O)N(C1CC1)S(=O)(=O)c1ccc(Oc2ccccc2)cc1 [Compound 26],3.9
9,COc1cscc1C(=O)N(C1CC1)S(=O)(=O)c1ccc(O)c(O)c1O [Compound 27],3.9
10,COc1cscc1C(=O)N(C1CC1)S(=O)(=O)c1ccc(Oc2ccc(Br)cc2)cc1 [Compound 28],4.4
11,CCOC(=O)c1[nH]c(C)c(C(=O)N(C2CC2)S(=O)(=O)c2cccc(O)c2O)c1C [Compound 34],3.5
12,Cn1cc(C(=O)N(C2CC2)S(=O)(=O)c2cccc(O)c2O)c(C(F)(F)F)c1 [Compound 36],3.3
13,Cn1cc(C(=O)N(C2CC2)S(=O)(=O)c2ccc(O)c(O)c2O)c(C(F)(F)F)c1 [Compound 37],3.9
14,Cn1cc(C(=O)N(C2CC2)S(=O)(=O)c2ccc(Oc3ccccc3)cc2)c(C(F)(F)F)c1 [Compound 38],4
15,Cn1cc(C(=O)N(C2CC2)S(=O)(=O)c2ccc(Oc3ccc(Br)cc3)cc2)c(C(F)(F)F)c1 [Compound 39],4.5
16,Cc1nc(C(F)(F)F)c(C(=O)N(C2CC2)S(=O)(=O)c2ccc(Oc3ccccc3)cc2)s1 [Compound 66],4.4
17,Cc1cc(C(=O)N(C2CC2)S(=O)(=O)c2cccc(O)c2O)nn1C [Compound 74],2.7
18,Cc1cc(C(=O)N(C2CC2)S(=O)(=O)c2ccc(O)c(O)c2O)nn1C [Compound 75],3.3

row,Structure (SMILES),chromatographic logP
1,Cc1cc(C(=O)N(C2CC2)S(=O)(=O)c2ccc(Oc3ccccc3)cc2)nn1C [Compound 76],3.4
2,Cc1cc(C(=O)N(C2CC2)S(=O)(=O)c2ccc(Oc3ccc(Br)cc3)cc2)nn1C [Compound 77],4
3,CC(C)c1nn(C)c(F)c1C(=O)N(C1CC1)S(=O)(=O)c1cccc(O)c1O [Compound 93],3.6
4,CC(C)c1nn(C)c(F)c1C(=O)N(C1CC1)S(=O)(=O)c1ccccc1O [Compound 95],3.1
5,CC(C)c1nn(C)c(F)c1C(=O)N(C1CC1)S(=O)(=O)c1ccc(O)cc1O [Compound 96],3.8
6,CC(C)c1nn(C)c(F)c1C(=O)N(C1CC1)S(=O)(=O)c1ccc(C(F)(F)F)cc1O [Compound 97],4
7,CC(C)c1nn(C)c(F)c1C(=O)N(C1CC1)S(=O)(=O)c1ccccc1C(F)(F)F [Compound 98],3.4
8,Cn1nc(-c2ccccc2)c(C(=O)N(C2CC2)S(=O)(=O)c2ccc(O)c(O)c2O)c1F [Compound 100],4.3
9,Cn1nc(-c2ccccc2)c(C(=O)N(C2CC2)S(=O)(=O)c2cccc(O)c2O)c1F [Compound 101],3.7
10,Cn1nc(C(F)F)c(C(=O)N(C2CC2)S(=O)(=O)c2ccccc2O)c1F [Compound 103],2.8
11,Cn1nc(C(F)F)c(C(=O)N(C2CC2)S(=O)(=O)c2ccc(O)cc2O)c1F [Compound 105],3.4
12,Cn1nc(C(F)F)c(C(=O)N(C2CC2)S(=O)(=O)c2ccccc2C(F)(F)F)c1F [Compound 106],3
13,Cn1nc(C(F)F)c(C(=O)N(C2CC2)S(=O)(=O)c2ccc(Oc3ccccc3)cc2)c1F [Compound 107],3.8
14,Cn1nc(C(F)(F)F)c(C(=O)N(C2CC2)S(=O)(=O)c2ccc(O)c(O)c2O)c1F [Compound 108],4.1
15,CC(F)c1nn(C)cc1C(=O)N(C1CC1)S(=O)(=O)c1cccc(O)c1O (stereo not shown) [Compound 119],2.8
16,CC(F)c1nn(C)cc1C(=O)N(C1CC1)S(=O)(=O)c1ccc(O)c(O)c1O (stereo not shown) [Compound 120],3.4
17,CC(F)c1nn(C)cc1C(=O)N(C1CC1)S(=O)(=O)c1ccc(Oc2ccccc2)cc1 (stereo not shown) [Compound 121],3.5
18,CC(F)c1nn(C)cc1C(=O)N(C1CC1)S(=O)(=O)c1ccc(Oc2ccc(Br)cc2)cc1 (stereo not shown) [Compound 122],4.1
